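1) Cells in 96-well plates. 2) Compound, 48 h, 5 concentrations. 3) Linear interpolation between surrounding doses. 4) Unreached endpoint = highest concentration. GI50: concentration for 50% inhibition of growth.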 Calls of active or inactive are those of the source. Rule as the data show it: active = GI50 up to about 1.1 µM and inactive = higher.
Columns and labels:
Test in all cases: NCI-60 cell line screen, 48 h
ACHN = system: ACHN
TK-10 = system: TK-10
SK-MEL-28 = system: SK-MEL-28
COLO 205 = system: COLO 205
SK-MEL-2 = system: SK-MEL-2
SN12C = system: SN12C
UACC-62 = system: UACC-62
SK-OV-3 = system: SK-OV-3
A549 = system: A549
CCRF-CEM = system: CCRF-CEM
UACC-257 = system: UACC-257
NCI-H23 = system: NCI-H23
NCI-H460 = system: NCI-H460
LXFL 529 = system: LXFL 529
HCC 2998 = system: HCC 2998
T47D = system: T47D
KM12 = system: KM12
OVCAR-3 = system: OVCAR-3
MDA-MB-435 = system: MDA-MB-435
MDA-N = system: MDA-N

Row | Compound | GI50 (ACHN) | GI50 (TK-10) | GI50 (SK-MEL-28) | GI50 (COLO 205) | GI50 (SK-MEL-2) | GI50 (SN12C) | GI50 (UACC-62) | GI50 (SK-OV-3) | GI50 (A549) | GI50 (CCRF-CEM) | GI50 (UACC-257) | GI50 (NCI-H23) | GI50 (NCI-H460) | GI50 (LXFL 529) | GI50 (HCC 2998) | GI50 (T47D) | GI50 (KM12) | GI50 (OVCAR-3) | GI50 (MDA-MB-435) | GI50 (MDA-N)
1 | O=C(O)CN(c1ccccc1)S(=O)(=O)c1ccc(Cl)cc1 | > 100 µM (inactive) | > 100 µM (inactive) | > 100 µM (inactive) | > 100 µM (inactive) | > 100 µM (inactive) | > 100 µM (inactive) | > 100 µM (inactive) | > 100 µM (inactive) | > 100 µM (inactive) | > 100 µM (inactive) | > 100 µM (inactive) | > 100 µM (inactive) | > 100 µM (inactive) | > 100 µM (inactive) | – | – | – | – | – | –
2 | COc1cc(C2SCC(=O)N2c2ccc(-n3c(-c4ccccc4)nc4ccccc4c3=O)cc2)cc(OC)c1OC (stereo unspecified) | > 100 µM (inactive) | > 100 µM (inactive) | > 100 µM (inactive) | > 100 µM (inactive) | > 100 µM (inactive) | > 100 µM (inactive) | 41.2 µM (inactive) | 97.1 µM (inactive) | > 100 µM (inactive) | 69.7 µM (inactive) | > 100 µM (inactive) | > 100 µM (inactive) | > 100 µM (inactive) | – | > 100 µM (inactive) | 27.9 µM (inactive) | 97.3 µM (inactive) | > 100 µM (inactive) | > 100 µM (inactive) | > 100 µM (inactive)
3 | CC(=O)N(C(=O)CC(=O)NNCc1ccccc1Cl)c1ccc(Cl)cc1 | > 10 µM (inactive) | > 10 µM (inactive) | > 10 µM (inactive) | > 10 µM (inactive) | > 10 µM (inactive) | > 10 µM (inactive) | > 10 µM (inactive) | > 10 µM (inactive) | > 10 µM (inactive) | > 10 µM (inactive) | > 10 µM (inactive) | > 10 µM (inactive) | > 10 µM (inactive) | – | > 10 µM (inactive) | 8.11 µM (inactive) | > 10 µM (inactive) | > 10 µM (inactive) | > 10 µM (inactive) | > 10 µM (inactive)
4 | C[C@@H]1O[C@@H](O[C@H]2[C@H](Oc3cc(O)c4c(=O)cc(-c5ccc(O)cc5)oc4c3)O[C@H](CO)[C@@H](O)[C@@H]2O)[C@H](O)[C@H](O)[C@H]1O [RHOIFOLIN] | > 100 µM (inactive) | > 100 µM (inactive) | > 100 µM (inactive) | > 100 µM (inactive) | > 100 µM (inactive) | > 100 µM (inactive) | > 100 µM (inactive) | > 100 µM (inactive) | > 100 µM (inactive) | > 100 µM (inactive) | > 100 µM (inactive) | > 100 µM (inactive) | > 100 µM (inactive) | > 100 µM (inactive) | – | – | > 100 µM (inactive) | > 100 µM (inactive) | – | –
5 | COC(=O)c1ccccc1C1=C([N+](=O)[O-])C(c2ccccc2)C(C#N)=C(N)O1 (stereo unspecified) | 54.7 µM (inactive) | > 100 µM (inactive) | > 100 µM (inactive) | 50.8 µM (inactive) | > 100 µM (inactive) | > 100 µM (inactive) | 30.7 µM (inactive) | > 100 µM (inactive) | > 100 µM (inactive) | 30.1 µM (inactive) | > 100 µM (inactive) | 23.4 µM (inactive) | > 100 µM (inactive) | – | > 100 µM (inactive) | 37.7 µM (inactive) | 56 µM (inactive) | 24.7 µM (inactive) | 72.8 µM (inactive) | > 100 µM (inactive)
6 | Oc1cc(-c2ccccc2)nc2ncccc12 | 0.446 µM (active) | 0.206 µM (active) | 0.0743 µM (active) | 0.0855 µM (active) | 0.0303 µM (active) | 0.268 µM (active) | 0.0396 µM (active) | 0.126 µM (active) | 0.385 µM (active) | 0.0867 µM (active) | 0.203 µM (active) | 0.203 µM (active) | 0.12 µM (active) | – | 0.232 µM (active) | > 100 µM (inactive) | 0.0296 µM (active) | 0.145 µM (active) | 0.0133 µM (active) | 0.0129 µM (active)
7 | CC(=O)OCC1=C2C(OC(=O)C(C)C)CC3(COC(C)=O)OC3/C=C\C3(C)OC3C2OC1=O (stereo unspecified) | > 100 µM (inactive) | > 100 µM (inactive) | > 100 µM (inactive) | > 100 µM (inactive) | > 100 µM (inactive) | > 100 µM (inactive) | > 100 µM (inactive) | > 100 µM (inactive) | > 100 µM (inactive) | 50.5 µM (inactive) | > 100 µM (inactive) | > 100 µM (inactive) | > 100 µM (inactive) | – | > 100 µM (inactive) | > 100 µM (inactive) | > 100 µM (inactive) | > 100 µM (inactive) | > 100 µM (inactive) | > 100 µM (inactive)
8 | O=c1c2ccccc2oc2ccccc12.Oc1cccc2cccnc12 | 3.12 µM (inactive) | – | – | 3.05 µM (inactive) | – | 2.22 µM (inactive) | 3.76 µM (inactive) | < 0.01 µM (active) | 2.63 µM (inactive) | 0.815 µM (active) | 2.73 µM (inactive) | – | 0.966 µM (active) | 1.56 µM (inactive) | 1.88 µM (inactive) | – | 5.3 µM (inactive) | 5.53 µM (inactive) | – | –
9 | CC1=C(C)C(=O)O[C@@H]([C@](C)(O)[C@]2(O)CC[C@@]3(O)[C@@H]4C[C@H](O)[C@]5(O)[C@@H](O)C=CC(=O)[C@]5(C)[C@H]4CC[C@]23C)C1 | > 100 µM (inactive) | > 100 µM (inactive) | > 100 µM (inactive) | > 100 µM (inactive) | > 100 µM (inactive) | > 100 µM (inactive) | 47.6 µM (inactive) | > 100 µM (inactive) | > 100 µM (inactive) | 28.4 µM (inactive) | > 100 µM (inactive) | > 100 µM (inactive) | > 100 µM (inactive) | – | > 100 µM (inactive) | > 100 µM (inactive) | > 100 µM (inactive) | > 100 µM (inactive) | 87.9 µM (inactive) | 93.1 µM (inactive)
10 | N=c1[nH]cnc2c1nnn2C1C=CC(COS(N)(=O)=O)C1 (stereo unspecified) | 4.65 µM (inactive) | 3.18 µM (inactive) | 3.21 µM (inactive) | 3.59 µM (inactive) | 3.01 µM (inactive) | 15.9 µM (inactive) | 3.37 µM (inactive) | 24.6 µM (inactive) | 10.5 µM (inactive) | 13.2 µM (inactive) | 14.7 µM (inactive) | 1.95 µM (inactive) | 6.87 µM (inactive) | – | 6.53 µM (inactive) | 3.94 µM (inactive) | 9.68 µM (inactive) | 10.7 µM (inactive) | 4.24 µM (inactive) | 3.94 µM (inactive)
11 | N#Cc1c(-c2ccco2)c2c(n(C3OC(CO)C(O)C(O)C3O)c1=S)CCCC2 (stereo unspecified) | > 100 µM (inactive) | > 100 µM (inactive) | > 100 µM (inactive) | > 100 µM (inactive) | > 100 µM (inactive) | > 100 µM (inactive) | > 100 µM (inactive) | > 100 µM (inactive) | > 100 µM (inactive) | > 100 µM (inactive) | > 100 µM (inactive) | > 100 µM (inactive) | > 100 µM (inactive) | – | > 100 µM (inactive) | 85.5 µM (inactive) | > 100 µM (inactive) | > 100 µM (inactive) | > 100 µM (inactive) | > 100 µM (inactive)
12 | COc1ccc2c(c1)CC[C@@H]1C2CC[C@]2(C)OC(=O)CCC12 (stereo partly specified) | 50.8 µM (inactive) | 34.2 µM (inactive) | 16.8 µM (inactive) | 40.3 µM (inactive) | 23.1 µM (inactive) | 14.8 µM (inactive) | 20.2 µM (inactive) | > 100 µM (inactive) | 27.9 µM (inactive) | 3.6 µM (inactive) | 12.8 µM (inactive) | 12.6 µM (inactive) | 22.7 µM (inactive) | – | > 100 µM (inactive) | 34.6 µM (inactive) | 32.2 µM (inactive) | 11.6 µM (inactive) | 26.5 µM (inactive) | 20.3 µM (inactive)
13 | CCCOc1ccc(-c2nc(-c3ccc(/N=C/c4ccc(N(CCOS(C)(=O)=O)CCOS(C)(=O)=O)cc4C)cc3)cs2)cc1 | 1.46 µM (inactive) | 18.8 µM (inactive) | 67.9 µM (inactive) | 2.21 µM (inactive) | 24.5 µM (inactive) | 16.8 µM (inactive) | 5.31 µM (inactive) | 5.93 µM (inactive) | 4.59 µM (inactive) | 2.58 µM (inactive) | 38 µM (inactive) | 10.1 µM (inactive) | 0.286 µM (active) | – | 12 µM (inactive) | 26.9 µM (inactive) | 13.6 µM (inactive) | 18.2 µM (inactive) | 33.8 µM (inactive) | 28.7 µM (inactive)
14 | COc1ccc([N+](=O)[O-])c2c(NCCCN(C)C)c3ccccc3nc12 | 0.13 µM (active) | 0.399 µM (active) | 3 µM (inactive) | 0.0953 µM (active) | 0.131 µM (active) | 0.26 µM (active) | 0.127 µM (active) | 0.33 µM (active) | 0.0843 µM (active) | 0.546 µM (active) | 0.23 µM (active) | 0.0625 µM (active) | 0.0355 µM (active) | – | < 0.0319 µM (active) | 0.2 µM (active) | 0.0991 µM (active) | 0.125 µM (active) | 0.306 µM (active) | 0.425 µM (active)
15 | CCc1c(C)c(C#N)c(=S)n(C2OC(CO)C(O)C(O)C2O)c1C (stereo unspecified) | > 100 µM (inactive) | > 100 µM (inactive) | > 100 µM (inactive) | > 100 µM (inactive) | > 100 µM (inactive) | > 100 µM (inactive) | > 100 µM (inactive) | > 100 µM (inactive) | > 100 µM (inactive) | > 100 µM (inactive) | > 100 µM (inactive) | > 100 µM (inactive) | > 100 µM (inactive) | – | > 100 µM (inactive) | > 100 µM (inactive) | > 100 µM (inactive) | > 100 µM (inactive) | > 100 µM (inactive) | > 100 µM (inactive)

Reference: ChEMBL document CHEMBL1201862, “PubChem BioAssay data set” (2004)
